Experimental data taken from BindingDB's records for doi:10.1016/j.bmcl.2005.05.131 (Naeja Pharmaceutical, 2005).

Biological target: T1, Cyclin-dependent kinase 4/G1/S-specific cyclin-D1 [L188C] (Homo sapiens, UniProt P11802)
Experiment: CDKs Assay

| Structure (SMILES) | IC50 [µM] |
| --- | --- |
| COc1ccc2cnc(Nc3ccc(N4CCN(C(C)=O)CC4)cc3)nc2c1C1CCCC1 [1-(4-{4-[(8-cyclopentyl-7-methoxyquinazolin-2-yl)amino]phenyl}piperazin-1-yl)ethan-1-one] | 0.002 |
| CC(C)c1c(O)ccc2cnc(Nc3ccccc3)nc12 [2-(phenylamino)-8-(propan-2-yl)quinazolin-7-ol] | 0.325 |
| COc1ccc2cnc(Nc3ccc(N4CCN(C(=O)CN)CC4)cc3)nc2c1C1CCCC1 [2-amino-1-(4-{4-[(8-cyclopentyl-7-methoxyquinazolin-2-yl)amino]phenyl}piperazin-1-yl)ethan-1-one] | 0.002 |
| COc1ccc2cnc(Nc3ccc(N4CCN(C(=O)CN)CC4)cc3)nc2c1C(C)C [2-amino-1-[4-(4-{[7-methoxy-8-(propan-2-yl)quinazolin-2-yl]amino}phenyl)piperazin-1-yl]ethan-1-one] | 0.01 |
| COc1ccc2cnc(Nc3ccc(N4CCOCC4)cc3)nc2c1C1CCCC1 [8-cyclopentyl-7-methoxy-N-[4-(morpholin-4-yl)phenyl]quinazolin-2-amine] | 0.018 |
| COc1ccc2cnc(Nc3ccc(N4CCNCC4)cc3)nc2c1C1CCCC1 [8-cyclopentyl-7-methoxy-N-[4-(piperazin-1-yl)phenyl]quinazolin-2-amine] | 0.001 |
| COc1ccc2cnc(Nc3ccc(N4CCCCC4)cc3)nc2c1C1CCCC1 [8-cyclopentyl-7-methoxy-N-[4-(piperidin-1-yl)phenyl]quinazolin-2-amine] | 0.011 |
| COc1ccc2cnc(Nc3ccc(N4CCCC4)cc3)nc2c1C1CCCC1 [8-cyclopentyl-7-methoxy-N-[4-(pyrrolidin-1-yl)phenyl]quinazolin-2-amine] | 1.75 |
| COc1ccc2cnc(Nc3ccc(N4CCNCC4)c(F)c3)nc2c1C1CCCC1 [8-cyclopentyl-N-[3-fluoro-4-(piperazin-1-yl)phenyl]-7-methoxyquinazolin-2-amine] | 0.004 |
| COc1ccc2cnc(Nc3ccc(N4CCC(N)C4)cc3)nc2c1C1CCCC1 (configuration not stated) [N-[4-(3-aminopyrrolidin-1-yl)phenyl]-8-cyclopentyl-7-methoxyquinazolin-2-amine] | 0.115 |

Biological target: T1, Cyclin-dependent kinase 4/G1/S-specific cyclin-D1 [L188C]
Experiment: not given

| Structure (SMILES) | IC50 [µM] |
| --- | --- |
| COc1ccc2cnc(Nc3ccc(N4CCN(C(C)=O)CC4)cc3)nc2c1C(C)C [1-[4-(4-{[7-methoxy-8-(propan-2-yl)quinazolin-2-yl]amino}phenyl)piperazin-1-yl]ethan-1-one] | 0.025 |
| COc1ccc2cnc(Nc3ccc(N4CCCC4)cc3)nc2c1C(C)C [7-methoxy-8-(propan-2-yl)-N-[4-(pyrrolidin-1-yl)phenyl]quinazolin-2-amine] | 0.56 |
| COc1ccc2cnc(Nc3ccc(N4CCOCC4)cc3)nc2c1C(C)C [7-methoxy-N-[4-(morpholin-4-yl)phenyl]-8-(propan-2-yl)quinazolin-2-amine] | 0.052 |
| COc1ccc2cnc(Nc3ccc(N4CCNCC4)cc3)nc2c1C(C)C [7-methoxy-N-[4-(piperazin-1-yl)phenyl]-8-(propan-2-yl)quinazolin-2-amine] | 0.016 |
| COc1ccc2cnc(Nc3ccc(N4CCCCC4)cc3)nc2c1C(C)C [7-methoxy-N-[4-(piperidin-1-yl)phenyl]-8-(propan-2-yl)quinazolin-2-amine] | 0.052 |
| COc1ccc2cnc(Nc3ccccc3)nc2c1C(C)C [7-methoxy-N-phenyl-8-(propan-2-yl)quinazolin-2-amine] | 0.125 |
| COc1ccc2cnc(Nc3ccc(N4CCC(N)C4)cc3)nc2c1C(C)C (configuration not stated) [N-[4-(3-aminopyrrolidin-1-yl)phenyl]-7-methoxy-8-(propan-2-yl)quinazolin-2-amine] | 0.011 |
